For orientation: IC50 means the concentration at which inhibition is half-maximal. In general, EC50 refers to the concentration that produces a half-maximal response. Usually AC50 stands for the concentration giving half of the maximal activity seen.

Calls of active or inactive are those of the source.

This is an account of results in ChEMBL document CHEMBL1201862, “PubChem BioAssay data set” (2004).

Test [1] has as its target T1, Tyrosine-protein phosphatase non-receptor type 22 (Homo sapiens, UniProt Q9Y2R2).
T1 sequence (Q9Y2R2 whole entry): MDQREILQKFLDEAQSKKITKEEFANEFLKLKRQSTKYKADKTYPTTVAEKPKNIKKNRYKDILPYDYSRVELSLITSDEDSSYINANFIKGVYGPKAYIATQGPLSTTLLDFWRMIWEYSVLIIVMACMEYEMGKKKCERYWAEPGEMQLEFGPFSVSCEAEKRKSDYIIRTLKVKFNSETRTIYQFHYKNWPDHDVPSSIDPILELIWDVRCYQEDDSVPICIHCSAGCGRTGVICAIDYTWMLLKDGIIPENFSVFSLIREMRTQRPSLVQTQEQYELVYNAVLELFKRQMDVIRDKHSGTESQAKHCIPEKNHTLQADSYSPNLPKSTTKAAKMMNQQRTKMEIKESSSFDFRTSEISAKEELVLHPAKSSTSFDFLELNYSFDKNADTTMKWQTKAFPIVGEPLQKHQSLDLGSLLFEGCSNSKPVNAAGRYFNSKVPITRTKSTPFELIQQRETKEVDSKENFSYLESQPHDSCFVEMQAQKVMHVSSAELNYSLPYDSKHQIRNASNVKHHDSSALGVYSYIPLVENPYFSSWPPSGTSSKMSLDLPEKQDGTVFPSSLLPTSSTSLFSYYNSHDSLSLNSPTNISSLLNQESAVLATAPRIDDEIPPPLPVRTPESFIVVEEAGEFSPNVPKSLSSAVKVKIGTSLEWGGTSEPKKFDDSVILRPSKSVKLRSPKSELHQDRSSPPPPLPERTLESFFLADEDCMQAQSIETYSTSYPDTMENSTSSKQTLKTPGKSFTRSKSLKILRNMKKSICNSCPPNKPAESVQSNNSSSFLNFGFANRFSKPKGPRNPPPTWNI
Put plainly: PubChem AID 2140.

Test [2] deals with T2, Tyrosine-protein phosphatase non-receptor type 7 (Homo sapiens, UniProt P35236).
T2 sequence (P35236 whole entry): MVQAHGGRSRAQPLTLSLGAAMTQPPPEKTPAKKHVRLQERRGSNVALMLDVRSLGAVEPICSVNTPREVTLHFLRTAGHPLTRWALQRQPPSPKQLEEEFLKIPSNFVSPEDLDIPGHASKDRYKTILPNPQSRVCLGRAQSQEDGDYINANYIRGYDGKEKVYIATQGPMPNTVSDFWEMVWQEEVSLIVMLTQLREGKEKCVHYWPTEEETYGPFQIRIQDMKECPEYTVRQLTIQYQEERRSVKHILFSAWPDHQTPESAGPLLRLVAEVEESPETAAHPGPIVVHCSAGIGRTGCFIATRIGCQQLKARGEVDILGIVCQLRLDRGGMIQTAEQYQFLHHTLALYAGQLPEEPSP
Put plainly: HePTP (PTPN7) phosphatase inhibitor potency, SAR follow-up, biochemical, set 2 (AID 449736). It counts as functional.

The target of test [3] is T1, Tyrosine-protein phosphatase non-receptor type 22. It counts as functional.
In test [4] the target is T2, Tyrosine-protein phosphatase non-receptor type 7. It counts as functional.
Test [5] can be described thus: cytotoxicity in HEK-293T cells, dose response, cytotoxicity control for BCR NF-kB inhibitor project, luminescence, B-cell screen hits (AID 489021).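 Further: HEK-293T cells carrying an NF-kB luciferase reporter; cells exposed to compound for about 14 hours before viability readout.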 The format is functional, cell-based.
The target of test [6] is T1, Tyrosine-protein phosphatase non-receptor type 22. Nature of the test: inhibitors of LYP phosphatase, biochemical, fluorescence intensity, uHTS (AID 1779).
Test [7] can be described thus: growth suppression of PTEN-null colon cells, dose response, cell-based, HCT116 PTEN knockout (AID 1047).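 Further: HCT116 colon tumor cells with PTEN knocked out; cells exposed to compound for 60 hours before readout; potency for loss of cell viability measured by luminescence.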 It counts as functional.
The nature of test [8]: cytotoxicity toward NIH3T3 fibroblasts, dose response, counter-screen, cell-based, ATP luminescence, mouse fibroblasts (AID 2010).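 Further: cells exposed to compound for about 90 hours before reading.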 It counts as functional.
A short description of test [9]: Luminescence Cell-Based Dose Response HTS to Identify Activators of Luciferase Translation or Activity in H4 […] Cells. [Related pubchem assays: 1829 (Project Summary), 1814 (Primary HTS)]. It counts as functional.
Test [10] is described as follows: Luminescent dose response cell-based high throughput screening assay for inhibitors of the Janus kinase 2 mutant JAK2V617F. [Related pubchem assays: 1446 (Primary screen.), 1521 (Confirmation assay.), 1486 (Counter screen.)]. It counts as functional. On the technique in general: A counterscreen serves to expose hits that act by an unwanted route or on another target.

Test [11] in a line: cytotoxicity in HPDE-C7 cells, cell-based, fluorescence, HTS (AID 430). Particulars: Homo sapiens. It counts as functional.
Test [12] concerns the target T3, Sentrin-specific protease 8 (Homo sapiens, UniProt Q96LD8).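 Further: luminescence read-out of SENP8 inhibition, dose-response confirmation following an ultra-high-throughput screen.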
T3 sequence (Q96LD8 whole entry): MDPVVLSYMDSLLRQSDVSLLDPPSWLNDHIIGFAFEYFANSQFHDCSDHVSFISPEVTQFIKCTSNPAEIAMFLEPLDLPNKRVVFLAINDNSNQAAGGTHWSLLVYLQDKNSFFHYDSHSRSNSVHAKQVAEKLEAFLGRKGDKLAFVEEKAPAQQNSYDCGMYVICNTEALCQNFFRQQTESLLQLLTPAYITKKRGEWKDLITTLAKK
The format is functional.

Test [13] concerns INS1. Put plainly: beta cell apoptosis inhibitors, cytokine rescue, dose response, luminescence, retest (AID 449756).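 Further: cell death triggered by IL-1 beta plus TNF-alpha plus IFN-gamma mixture; protective hits raise ATP signal compared with cytokine alone wells.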 The format is functional, cell-based. Particulars: Rattus norvegicus, INS1.
Test [14] in a line: Luminescence Cell-Based Dose Confirmation HTS to Identify Activators of 5'UTR Stem-Loop Driven Alpha-Synuclein mRNA Translation in H4 Neuroglioblastoma Cells. [Related pubchem assays: 1829 (Project Summary), 1814 (Primary HTS)]. It counts as functional.
The target in test [15] is T4, Mannose-6-phosphate isomerase (Homo sapiens, UniProt P34949).
T4 sequence (P34949 whole entry): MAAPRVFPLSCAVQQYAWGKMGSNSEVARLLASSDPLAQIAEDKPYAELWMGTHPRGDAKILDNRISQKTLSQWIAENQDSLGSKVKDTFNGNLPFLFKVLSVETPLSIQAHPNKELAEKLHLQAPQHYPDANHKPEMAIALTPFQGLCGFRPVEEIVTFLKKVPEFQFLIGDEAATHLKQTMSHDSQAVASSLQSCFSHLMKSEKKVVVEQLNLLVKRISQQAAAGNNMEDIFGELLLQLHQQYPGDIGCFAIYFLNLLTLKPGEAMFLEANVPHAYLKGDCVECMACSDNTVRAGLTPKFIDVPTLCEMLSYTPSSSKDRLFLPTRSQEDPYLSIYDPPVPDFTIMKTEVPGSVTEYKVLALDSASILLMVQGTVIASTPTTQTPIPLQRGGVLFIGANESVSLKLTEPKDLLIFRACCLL
Put plainly: human PMI inhibitors, high substrate, primary screen, biochemical, fluorescence intensity, high mannose 6-phosphate (AID 1220).

On to `COc1ccc(/C=C2\SC(=S)N(CCC(=O)Nc3ccc(C(=O)O)cc3)C2=O)cc1OC`, for which the IC50 is 7.46 µM (active) in test [1]; 0.312 µM (active) in test [2]; 2.75 µM (active) in test [3]; 3.78 µM (active) in test [4]; > 80 µM (inactive) in [5]; 4.29 µM (active) in [6].

Consider `COc1ccc(Nc2ccc3c(c2)=NC2(CCCCC2)[N+]=3[O-])cc1`, for which the EC50 in [7] is 2.49 µM (active); in test [8], 9.19 µM (active); in [9], > 120 µM (not active); in test [11] it was 6.89 µM (active); in [14], > 120 µM (not active). Further, the IC50 is 0.824 µM (active) in test [10], 14.8 µM (active) in [12] and > 50 µM (not active) in [15]. For the same compound, the AC50 in test [13] was 1.67 µM (active).
